Measured values taken from patent US12521393B2, “Cytotoxicity targeting chimeras for CCR2-expressing cells” (GLAXOSMITHKLINE INTELLECTUAL PROPERTY DEVELOPMENT LIMITED, priority 2021, dated 2026).

What was measured:
[1] = system: endogenous target monocytes in human PBMC; experiment: PBMC ex vivo monocyte depletion flow cytometry assay (Example 200); type: cell-based; details: with anti-cotinine antibody (SEQ ID NO: 11/12), 18-24 hours, EC50 in molar, read-out: Ex Vivo Depletion Assay pEC50 (converted)
How it was run: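 Monocyte depletion is reported as pEC50, averaged or given individually across runs, and read by flow cytometry staining CD45, CD14 and CD4 with a viability dye. Compounds, diluted four-fold over 11 points from 1 mM DMSO stocks, were combined with 30 μg/mL Fc-enhanced anti-cotinine antibody and human PBMC, then incubated 18-24 h at 37° C.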

[2] = target: human alpha1 nicotinic acetylcholine (nACh) receptor (Homo sapiens, UniProt P02708); experiment: Nicotinic acetylcholine receptor antagonism assay, IONFlux automated patch clamp (Example 203); type: cell-based; details: for IC50: antagonism of ACh-stimulated human alpha1 nAChR current, patch clamp; for Emax at 100 µM: maximum percentage antagonism at maximum concentration tested 100 μM
How it was run: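 Cells expressing human α1 nAChR were incubated with a compound dose response (top 10 μM or 100 μM), then stimulated with ACh (10 mM), and peak current was read by automated patch clamp. % inhibition was taken against ACh-alone control, corrected for vehicle and run-down, and fit non-linearly for IC50; runs were averaged.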

Sequence of human alpha1 nicotinic acetylcholine (nACh) receptor (P02708 21-457): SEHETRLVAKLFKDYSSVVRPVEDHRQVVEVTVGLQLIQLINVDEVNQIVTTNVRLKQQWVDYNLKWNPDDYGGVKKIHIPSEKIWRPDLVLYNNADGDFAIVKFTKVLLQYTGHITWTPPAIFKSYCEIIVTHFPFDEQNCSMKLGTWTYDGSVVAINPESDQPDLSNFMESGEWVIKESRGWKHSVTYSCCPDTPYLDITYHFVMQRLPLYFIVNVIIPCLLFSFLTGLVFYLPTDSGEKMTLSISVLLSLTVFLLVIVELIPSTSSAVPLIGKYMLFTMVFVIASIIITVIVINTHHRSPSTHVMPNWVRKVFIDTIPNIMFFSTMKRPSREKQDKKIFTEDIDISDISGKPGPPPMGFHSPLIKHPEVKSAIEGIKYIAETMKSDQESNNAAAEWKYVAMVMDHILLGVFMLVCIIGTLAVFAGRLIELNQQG
Sequence of human alpha1 nicotinic acetylcholine (nACh) receptor (P11230 24-501 partner): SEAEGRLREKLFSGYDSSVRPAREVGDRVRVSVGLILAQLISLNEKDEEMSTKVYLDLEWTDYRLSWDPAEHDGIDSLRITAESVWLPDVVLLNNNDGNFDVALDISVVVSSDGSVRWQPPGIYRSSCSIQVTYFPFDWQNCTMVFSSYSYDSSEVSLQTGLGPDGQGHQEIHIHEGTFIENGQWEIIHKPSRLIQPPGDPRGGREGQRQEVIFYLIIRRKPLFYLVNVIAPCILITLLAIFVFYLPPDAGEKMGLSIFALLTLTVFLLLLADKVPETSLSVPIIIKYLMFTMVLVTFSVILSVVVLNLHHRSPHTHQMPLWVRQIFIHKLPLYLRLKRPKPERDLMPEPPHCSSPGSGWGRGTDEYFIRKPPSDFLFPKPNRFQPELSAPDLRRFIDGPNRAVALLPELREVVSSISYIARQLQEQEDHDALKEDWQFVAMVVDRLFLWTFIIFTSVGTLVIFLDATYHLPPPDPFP
Sequence of human alpha1 nicotinic acetylcholine (nACh) receptor (Q07001 22-517 partner): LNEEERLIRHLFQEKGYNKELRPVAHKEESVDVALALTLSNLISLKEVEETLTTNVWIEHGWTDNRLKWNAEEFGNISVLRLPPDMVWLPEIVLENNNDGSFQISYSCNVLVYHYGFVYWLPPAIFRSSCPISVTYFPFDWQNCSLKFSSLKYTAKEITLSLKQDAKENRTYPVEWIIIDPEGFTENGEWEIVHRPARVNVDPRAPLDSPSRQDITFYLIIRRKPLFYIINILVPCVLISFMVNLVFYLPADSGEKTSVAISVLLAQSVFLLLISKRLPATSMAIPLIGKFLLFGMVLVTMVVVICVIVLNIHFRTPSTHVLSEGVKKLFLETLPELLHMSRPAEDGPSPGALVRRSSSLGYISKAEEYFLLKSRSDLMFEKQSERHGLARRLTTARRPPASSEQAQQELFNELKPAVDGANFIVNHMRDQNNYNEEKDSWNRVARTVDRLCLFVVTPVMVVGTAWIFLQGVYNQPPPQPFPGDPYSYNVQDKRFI

| Structure (SMILES) | EC50 [1] [nM] | IC50 [2] [nM] | Emax at 100 µM ([2]; read-out: Maximum Response) [%] | Emax at 33.33 µM ([2]; maximum percentage antagonism at maximum concentration tested 33.33 μM, read-out: Maximum Response) [%] | Emax at 10 µM ([2]; maximum percentage antagonism at maximum concentration tested 10 μM, read-out: Maximum Response) [%] |
| --- | --- | --- | --- | --- | --- |
| CC(C)N(C)[C@@H]1CC[C@H](N2CC[C@H](Nc3ncnc4ccc(C(F)(F)F)cc34)C2=O)[C@H](NC(=O)[C@H]2CC[C@H](NC(=O)CCCO[C@H]3CC[C@H](OCCNC(=O)[C@H]4CC(=O)N(C)[C@@H]4c4cccnc4)CC3)CC2)C1 [Example 1, (2S,3S)-N-(2-(((1R,4S)-4-(4-(((1R,4R)-4-(((1R,2S,5R)-5-(Isopropyl(methyl)amino)-2-((S)-2-oxo-3-((6-(trifluoromethyl)quinazolin-4-yl)amino)pyrrolidin-1-yl)cyclohexyl)carbamoyl)cyclohexyl)amino)-4-oxobutoxy)cyclohexyl)oxy)ethyl)-1-methyl-5-oxo-2-(pyridin-3-yl)pyrrolidine-3-carboxamide] | 1.58 | 84600 | 25.6 |  |  |
| CC(C)N(C)[C@@H]1CC[C@H](N2CC[C@H](Nc3ncnc4ccc(C(F)(F)F)cc34)C2=O)[C@H](NC(=O)[C@H]2CC[C@@H](NC(=O)CCCO[C@H]3CC[C@H](OCCNC(=O)[C@H]4CC(=O)N(C)[C@@H]4c4cccnc4)CC3)CC2)C1 [Example 5, (2S,3S)-N-(2-(((1R,4S)-4-(4-(((1S,4S)-4-(((1R,2S,5R)-5-(Isopropyl(methyl)amino)-2-((S)-2-oxo-3-((6-(trifluoromethyl)quinazolin-4-yl)amino)pyrrolidin-1-yl)cyclohexyl)carbamoyl)cyclohexyl)amino)-4-oxobutoxy)cyclohexyl)oxy)ethyl)-1-methyl-5-oxo-2-(pyridin-3-yl)pyrrolidine-3-carboxamide] | 0.398 | ≥ 100000 | 40.5 |  |  |
| CC(C)N(C)[C@@H]1CC[C@H](N2CC[C@H](Nc3ncnc4ccc(C(F)(F)F)cc34)C2=O)[C@H](NC(=O)CCOCCNC(=O)CCCO[C@H]2CC[C@H](OCCNC(=O)[C@H]3CC(=O)N(C)[C@@H]3c3cccnc3)CC2)C1 [Example 7, (2S,3S)-N-(2-(((1r,4S)-4-(4-((2-(3-(((1R,2S,5R)-5-(Isopropyl(methyl)amino)-2-((S)-2-oxo-3-((6-(trifluoromethyl)quinazolin-4-yl)amino)pyrrolidin-1-yl)cyclohexyl)amino)-3-oxopropoxy)ethyl)amino)-4-oxobutoxy)cyclohexyl)oxy)ethyl)-1-methyl-5-oxo-2-(pyridin-3-yl)pyrrolidine-3-carboxamide] | 0.501 | 13700 | 95 |  |  |
| CN1C(=O)C[C@H](C(=O)NCCO[C@H]2CC[C@H](OCCCC(=O)N[C@H]3CC[C@H](C(=O)N[C@@H]4C[C@H](NC(C)(C)C)CC[C@@H]4N4CC[C@H](Nc5ncnc6ccc(C(F)(F)F)cc56)C4=O)CC3)CC2)[C@H]1c1cccnc1 [Example 10, (2S,3S)-N-(2-(((1R,4S)-4-(4-(((1R,4R)-4-(((1R,2S,5R)-5-(tert-Butylamino)-2-((S)-2-oxo-3-((6-(trifluoromethyl)quinazolin-4-yl)amino)pyrrolidin-1-yl)cyclohexyl)carbamoyl)cyclohexyl)amino)-4-oxobutoxy)cyclohexyl)oxy)ethyl)-1-methyl-5-oxo-2-(pyridin-3-yl)pyrrolidine-3-carboxamide] |  | ≥ 33300 |  | 48 |  |
| CC(C)N(C)[C@@H]1CC[C@H](N2CC[C@H](Nc3ncnc4ccc(C(F)(F)F)cc34)C2=O)[C@H](NC(=O)[C@H]2CC[C@@H](NC(=O)CCOCCOCCNC(=O)CCNC(=O)[C@H]3CC(=O)N(C)[C@@H]3c3cccnc3)CC2)C1 [Example 16, (2S,3S)-N-(3-((2-(2-(3-(((1S,4s)-4-(((1R,2S,5R)-5-(Isopropyl(methyl)amino)-2-((S)-2-oxo-3-((6-(trifluoromethyl)quinazolin-4-yl)amino)pyrrolidin-1-yl)cyclohexyl)carbamoyl)cyclohexyl)amino)-3-oxopropoxy)ethoxy)ethyl)amino)-3-oxopropyl)-1-methyl-5-oxo-2-(pyridin-3-yl)pyrrolidine-3-carboxamide] | 0.316 | ≥ 100000 | 47.8 |  |  |
| CC(C)N(C)[C@@H]1CC[C@H](N2CC[C@H](Nc3ncnc4ccc(C(F)(F)F)cc34)C2=O)[C@H](NC(=O)[C@H]2CC[C@@H](NC(=O)CCCC(=O)NCCCOCCCNC(=O)[C@H]3CC(=O)N(C)[C@@H]3c3cccnc3)CC2)C1 [Example 18, N^1-((1S,4s)-4-(((1R,2S,5R)-5-(Isopropyl(methyl)amino)-2-((S)-2-oxo-3-((6-(trifluoromethyl)quinazolin-4-yl)amino)pyrrolidin-1-yl)cyclohexyl)carbamoyl)cyclohexyl)-N^5-(3-(3-((2S,3S)-1-methyl-5-oxo-2-(pyridin-3-yl)pyrrolidine-3-carboxamido)propoxy)propyl)glutaramide] | 0.501 | ≥ 100000 | 44.9 |  |  |
| CC(C)N(C)[C@@H]1CC[C@H](N2CC[C@H](Nc3ncnc4ccc(C(F)(F)F)cc34)C2=O)[C@H](NC(=O)[C@H]2CC[C@H](NC(=O)CCCC(=O)NCCCOCCCNC(=O)[C@H]3CC(=O)N(C)[C@@H]3c3cccnc3)CC2)C1 [Example 19, N1-((1R,4r)-4-(((1R,2S,5R)-5-(Isopropyl(methyl)amino)-2-((S)-2-oxo-3-((6-(trifluoromethyl)quinazolin-4-yl)amino)pyrrolidin-1-yl)cyclohexyl)carbamoyl)cyclohexyl)-N5-(3-(3-((2S,3S)-1-methyl-5-oxo-2-(pyridin-3-yl)pyrrolidine-3-carboxamido)propoxy)propyl)glutaramide] | 0.794 | ≥ 100000 | 34.2 |  |  |
| CN1C(=O)C[C@H](C(=O)NCCOCCOCCOCCC(=O)N[C@H]2CC[C@@H](C(=O)N[C@@H]3C[C@H](NC(C)(C)C)CC[C@@H]3N3CC[C@H](Nc4ncnc5ccc(C(F)(F)F)cc45)C3=O)CC2)[C@H]1c1cccnc1 [Example 23, (2S,3S)-N-(2-(2-(2-(3-(((1S,4s)-4-(((1R,2S,5R)-5-(tert-Butylamino)-2-((S)-2-oxo-3-((6-(trifluoromethyl)quinazolin-4-yl)amino)pyrrolidin-1-yl)cyclohexyl)carbamoyl)cyclohexyl)amino)-3-oxopropoxy)ethoxy)ethoxy)ethyl)-1-methyl-5-oxo-2-(pyridin-3-yl)pyrrolidine-3-carboxamide] | 2 | 85200 | 50.5 |  |  |
| CC(C)N(C)[C@@H]1CC[C@H](N2CC[C@H](Nc3ncnc4ccc(C(F)(F)F)cc34)C2=O)[C@H](NC(=O)[C@H]2C[C@@H](NC(=O)CCOCCOCCOCCNC(=O)[C@H]3CC(=O)N(C)[C@@H]3c3cccnc3)C2)C1 [Example 24, (2S,3S)-N-(2-(2-(2-(3-(((1S,3s)-3-(((1R,2S,5R)-5-(Isopropyl(methyl)amino)-2-((S)-2-oxo-3-((6-(trifluoromethyl)quinazolin-4-yl)amino)pyrrolidin-1-yl)cyclohexyl)carbamoyl)cyclobutyl)amino)-3-oxopropoxy)ethoxy)ethoxy)ethyl)-1-methyl-5-oxo-2-(pyridin-3-yl)pyrrolidine-3-carboxamide] | 1.26 | 85300 | 59.5 |  |  |
| CC(C)N(C)[C@@H]1CC[C@H](N2CC[C@H](Nc3ncnc4ccc(C(F)(F)F)cc34)C2=O)[C@H](NC(=O)[C@H]2CC[C@@H](NC(=O)CCOCCOCCOCCNC(=O)[C@H]3CC(=O)N(C)[C@@H]3c3cccnc3)CC2)C1 [Example 28, (2S,3S)-N-(2-(2-(2-(3-(((1S,4s)-4-(((1R,2S,5R)-5-(Isopropyl(methyl)amino)-2-((S)-2-oxo-3-((6-(trifluoromethyl)quinazolin-4-yl)amino)pyrrolidin-1-yl)cyclohexyl)carbamoyl)cyclohexyl)amino)-3-oxopropoxy)ethoxy)ethoxy)ethyl)-1-methyl-5-oxo-2-(pyridin-3-yl)pyrrolidine-3-carboxamide] | 1 | 40900 | 69.9 |  |  |
| CC(C)N(C)[C@@H]1CC[C@H](N2CC[C@H](Nc3ncnc4ccc(C(F)(F)F)cc34)C2=O)[C@H](NC(=O)[C@H]2CC[C@H](NC(=O)CCOCCOCCOCCNC(=O)[C@H]3CC(=O)N(C)[C@@H]3c3cccnc3)CC2)C1 [Example 30, (2S,3S)-N-(2-(2-(2-(3-(((1R,4r)-4-(((1R,2S,5R)-5-(Isopropyl(methyl)amino)-2-((S)-2-oxo-3-((6-(trifluoromethyl)quinazolin-4-yl)amino)pyrrolidin-1-yl)cyclohexyl)carbamoyl)cyclohexyl)amino)-3-oxopropoxy)ethoxy)ethoxy)ethyl)-1-methyl-5-oxo-2-(pyridin-3-yl)pyrrolidine-3-carboxamide] | 2.51 | ≥ 10000 |  |  | 5.4 |
| CC(C)N(C)[C@@H]1CC[C@H](N2CC[C@H](Nc3ncnc4ccc(C(F)(F)F)cc34)C2=O)[C@H](NC2CCN(C(=O)CCOCCOCCOCCOCCNC(=O)[C@H]3CC(=O)N(C)[C@@H]3c3cccnc3)CC2)C1 [Example 69, (2S,3S)-N-(15-(4-(((1R,2S,5R)-5-(Isopropyl(methyl)amino)-2-((S)-2-oxo-3-((6-(trifluoromethyl)quinazolin-4-yl)amino)pyrrolidin-1-yl)cyclohexyl)amino)piperidin-1-yl)-15-oxo-3,6,9,12-tetraoxapentadecyl)-1-methyl-5-oxo-2-(pyridin-3-yl)pyrrolidine-3-carboxamide] | 1.58 |  |  |  |  |
